Values joined by “and” are separate entries in the source; they are usually repeats but may differ in a detail not shown here. Equal values may be shown once. Toxic doses and inconclusive results are not listed.
Tested on: BDF1 mice, P388 leukemia ip, median survival T/C
Test: NCI In Vivo Anticancer Drug Screen. Data for tumor model P388 Leukemia (intraperitoneal) in B6D2F1 (BDF1) mice
Conditions: endpoint: median survival time, higher = longer survival
In short: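 Each value expresses how treatment altered survival: treated-mouse outcome over vehicle-mouse outcome, both groups bearing the transplanted tumour.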

[1] = dose: 100.0 mg/kg/injection, schedule: Q04DX003 (ip), vehicle: Klucel (hydroxypropylcellulose) (HPC)
[2] = dose: 50.0 mg/kg/injection, schedule: Q01DX009 (ip), vehicle: saline with Tween-80
[3] = dose: 100.0 mg/kg/injection, schedule: Q01DX009 (ip), vehicle: saline with Tween-80
[4] = dose: 25.0 mg/kg/injection, schedule: Q04DX003 (ip), vehicle: saline
[5] = dose: 50.0 mg/kg/injection, schedule: Q04DX003 (ip), vehicle: saline
[6] = dose: 200.0 mg/kg/injection, schedule: Q04DX003 (ip), vehicle: saline
[7] = dose: 100.0 mg/kg/injection, schedule: Q04DX003 (ip), vehicle: saline with Tween-80
[8] = dose: 200.0 mg/kg/injection, schedule: Q01DX009 (ip), vehicle: saline with Tween-80
[9] = dose: 200.0 mg/kg/injection, schedule: Q04DX003 (ip), vehicle: saline with Tween-80
[10] = dose: 400.0 mg/kg/injection, schedule: Q01DX009 (ip), vehicle: saline with Tween-80
[11] = dose: 400.0 mg/kg/injection, schedule: Q04DX003 (ip), vehicle: saline with Tween-80
[12] = dose: 25.0 mg/kg/injection, schedule: Q01DX009 (ip), vehicle: saline with Tween-80
[13] = dose: 50.0 mg/kg/injection, schedule: Q01DX009 (ip), vehicle: saline
[14] = dose: 100.0 mg/kg/injection, schedule: Q01DX009 (ip), vehicle: saline

Q: For Cc1cccc(N=P(c2ccccc2)(c2ccccc2)c2ccccc2)c1, which T/C (dose: 50.0 mg/kg/injection, schedule: Q01DX009 (ip), vehicle: Klucel (hydroxypropylcellulose) (HPC)) is on record?
A: 109 % of control

Q: And the T/C (dose: 50.0 mg/kg/injection, schedule: Q04DX003 (ip), vehicle: Klucel (hydroxypropylcellulose) (HPC))?
A: 109 % of control

Q: What about the T/C (dose: 100.0 mg/kg/injection, schedule: Q01DX009 (ip), vehicle: Klucel (hydroxypropylcellulose) (HPC)) of the same molecule?
A: 118 % of control

Q: What about the T/C [1] of the same molecule?
A: 100 % of control

Q: What about the T/C (dose: 133.0 mg/kg/injection, schedule: Q01DX009 (ip), vehicle: Klucel (hydroxypropylcellulose) (HPC)) of the same molecule?
A: 117 % of control

Q: What about the T/C (dose: 200.0 mg/kg/injection, schedule: Q01DX009 (ip), vehicle: Klucel (hydroxypropylcellulose) (HPC)) of the same molecule?
A: 108 % of control

Q: What about the T/C (dose: 200.0 mg/kg/injection, schedule: Q04DX003 (ip), vehicle: Klucel (hydroxypropylcellulose) (HPC)) of the same molecule?
A: 95 % of control

Q: CCOC(=O)c1oc2ccccc2c1CN was tested. Which T/C [2] did it give?
A: 107 % of control

Q: What about the T/C [3] of the same molecule?
A: 107 % of control

Q: With CC(C)(CC(=O)O)c1ccccc1 as the molecule, how does the T/C [4] read?
A: 89 % of control and 109 % of control

Q: And the T/C [5]?
A: 104 % of control and 120 % of control

Q: What about the T/C (dose: 100.0 mg/kg/injection, schedule: Q04DX003 (ip), vehicle: saline) of the same molecule?
A: 102 % of control and 106 % of control

Q: And the T/C [6]?
A: 102 % of control and 110 % of control and 113 % of control

Q: And the T/C (dose: 400.0 mg/kg/injection, schedule: Q04DX003 (ip), vehicle: saline)?
A: 105 % of control

Q: What does the source list for O=C(O)c1ccc(-c2ccccc2)cc1?
A: T/C [2]: 100 % of control; T/C [3]: 104 % of control; T/C [7]: 104 % of control; T/C [8]: 95 % of control; T/C [9]: 104 % of control

Q: Which T/C [3] does the source give for CCCCS(=O)(=O)OCCCCOS(=O)(=O)CCCC here?
A: 113 % of control

Q: And the T/C [7]?
A: 104 % of control

Q: And the T/C [8]?
A: 118 % of control

Q: What about the T/C [9] of the same molecule?
A: 109 % of control

Q: What about the T/C (dose: 264.0 mg/kg/injection, schedule: Q04DX003 (ip), vehicle: saline with Tween-80) of the same molecule?
A: 91 % of control

Q: And the T/C [10]?
A: 122 % of control

Q: What about the T/C [11] of the same molecule?
A: 95 % of control

Q: And the T/C (dose: 600.0 mg/kg/injection, schedule: Q04DX003 (ip), vehicle: saline with Tween-80)?
A: 104 % of control

Q: Which results are given for CN(C)CCCNc1cc(/C=C/c2cccc3ccccc23)nc2ccccc12?
A: T/C [2]: 95 % of control; T/C [3]: 88 % of control; T/C [8]: 101 % of control

Q: How did the T/C [12] turn out when CN1CCCC1CCNc1nc(C(Cl)(Cl)Cl)nc2ccc(Cl)cc12 (centres undefined) was run?
A: 100 % of control

Q: And the T/C [2]?
A: 100 % of control

Q: What about the T/C (dose: 50.0 mg/kg/injection, schedule: Q04DX003 (ip), vehicle: saline with Tween-80) of the same molecule?
A: 104 % of control

Q: And the T/C [7]?
A: 104 % of control

Q: What does the source list for O=Cc1csc2ncccc12?
A: T/C [7]: 91 % of control; T/C [9]: 100 % of control; T/C [11]: 95 % of control

Q: Which T/C (dose: 6.25 mg/kg/injection, schedule: Q04DX003 (ip), vehicle: saline sonified) does the source give for CCCCCCCCCCCCCCCCCCSc1ccccc1 here?
A: 110 % of control

Q: What about the T/C (dose: 12.5 mg/kg/injection, schedule: Q04DX003 (ip), vehicle: saline sonified) of the same molecule?
A: 100 % of control

Q: And the T/C (dose: 25.0 mg/kg/injection, schedule: Q04DX003 (ip), vehicle: saline sonified)?
A: 110 % of control

Q: [NH-]C(CCC(N)=O)C(=O)O.[NH-]C(CCCCN)C(=O)O.[Zn+2] (centres undefined) was tested. Which T/C (dose: 50.0 mg/kg/injection, schedule: Q01DX005 (ip), vehicle: saline) did it give?
A: 106 % of control

Q: Which T/C [2] does the source give for COC(=O)c1c(Cl)c(Cl)c(Cl)c(Cl)c1C(=O)O here?
A: 110 % of control

Q: How did the T/C (dose: 12.5 mg/kg/injection, schedule: Q01DX009 (ip), vehicle: saline) turn out when Cc1nc(NN)c(C(N)=O)nc1C was run?
A: 97 % of control

Q: And the T/C (dose: 25.0 mg/kg/injection, schedule: Q01DX009 (ip), vehicle: saline)?
A: 89 % of control

Q: And the T/C [4]?
A: 106 % of control

Q: What about the T/C [13] of the same molecule?
A: 93 % of control and 120 % of control

Q: And the T/C [5]?
A: 102 % of control

Q: Which T/C (dose: 35.0 mg/kg/injection, schedule: Q01DX009 (ip), vehicle: saline) does the source give for CCN(CCNc1ccc(C)c2sc3ccccc3c(=O)c12)CC(C)(C)O here?
A: 108 % of control

Q: What about the T/C (dose: 44.0 mg/kg/injection, schedule: Q04DX003 (ip), vehicle: saline) of the same molecule?
A: 105 % of control

Q: And the T/C (dose: 66.0 mg/kg/injection, schedule: Q04DX003 (ip), vehicle: saline)?
A: 120 % of control

Q: And the T/C [14]?
A: 159 % of control

Q: And the T/C (dose: 132.0 mg/kg/injection, schedule: Q04DX003 (ip), vehicle: saline)?
A: 160 % of control

Q: What about the T/C [6] of the same molecule?
A: 185 % of control

Q: And the T/C (dose: 225.0 mg/kg/injection, schedule: Q01DX009 (ip), vehicle: saline)?
A: 90 % of control

Q: CC(C)c1cc(C(C)C)n2nc(N)nc2n1 was tested. Which T/C [3] did it give?
A: 100 % of control

Q: What about the T/C [8] of the same molecule?
A: 95 % of control

Q: What about the T/C [10] of the same molecule?
A: 90 % of control

Q: How did the T/C (dose: 6.25 mg/kg/injection, schedule: Q01DX009 (ip), vehicle: saline with Tween-80) turn out when CC(C)C(C)/C=C\C(C)C1CCC2C3=CCC4CC(=O)CCC4(C)C3CCC21C (centres undefined) was run?
A: 104 % of control

Q: What about the T/C (dose: 12.5 mg/kg/injection, schedule: Q01DX009 (ip), vehicle: saline with Tween-80) of the same molecule?
A: 104 % of control

Q: What about the T/C [12] of the same molecule?
A: 108 % of control

Q: Which results are given for CNC/C(C)=C/Br?
A: T/C (dose: 12.5 mg/kg/injection, schedule: Q01DX009 (ip), vehicle: acetone): 100 % of control; T/C (dose: 18.75 mg/kg/injection, schedule: Q04DX003 (ip), vehicle: saline): 100 % of control; T/C (dose: 25.0 mg/kg/injection, schedule: Q01DX009 (ip), vehicle: acetone): 104 % of control; T/C (dose: 37.5 mg/kg/injection, schedule: Q04DX003 (ip), vehicle: saline): 104 % of control; T/C (dose: 50.0 mg/kg/injection, schedule: Q01DX009 (ip), vehicle: acetone): 104 % of control; T/C [13]: 100 % of control; T/C (dose: 63.75 mg/kg/injection, schedule: Q01DX001 (ip), vehicle: saline): 100 % of control; T/C (dose: 75.0 mg/kg/injection, schedule: Q01DX009 (ip), vehicle: saline): 95 % of control; T/C (dose: 75.0 mg/kg/injection, schedule: Q04DX003 (ip), vehicle: saline): 95 % of control; T/C [14]: 115 % of control; T/C (dose: 110.0 mg/kg/injection, schedule: Q04DX003 (ip), vehicle: saline): 110 % of control; T/C (dose: 127.5 mg/kg/injection, schedule: Q01DX001 (ip), vehicle: saline): 100 % of control; T/C (dose: 170.0 mg/kg/injection, schedule: Q04DX003 (ip), vehicle: saline): 110 % of control; T/C (dose: 200.0 mg/kg/injection, schedule: Q01DX009 (ip), vehicle: saline): 105 % of control; T/C (dose: 255.0 mg/kg/injection, schedule: Q04DX003 (ip), vehicle: saline): 105 % of control

Q: What does the source list for CC(=O)OC1=NC(C)c2c1cc(OC(C)=O)[nH]c2=O (centres undefined)?
A: T/C (dose: 6.25 mg/kg/injection, schedule: Q01DX009 (ip), vehicle: Klucel (hydroxypropylcellulose) (HPC)): 88 % of control; T/C (dose: 12.5 mg/kg/injection, schedule: Q01DX009 (ip), vehicle: Klucel (hydroxypropylcellulose) (HPC)): 96 % of control; T/C (dose: 25.0 mg/kg/injection, schedule: Q01DX009 (ip), vehicle: Klucel (hydroxypropylcellulose) (HPC)): 96 % of control; T/C [1]: 112 % of control; T/C (dose: 133.0 mg/kg/injection, schedule: Q04DX003 (ip), vehicle: Klucel (hydroxypropylcellulose) (HPC)): 121 % of control

Q: How did the T/C [2] turn out when CS(=O)CC(O)(c1ccccc1)c1cccnc1 (centres undefined) was run?
A: 103 % of control

Q: And the T/C [3]?
A: 92 % of control

Q: What about the T/C [8] of the same molecule?
A: 107 % of control

Q: Which results are given for COc1cccc2c1C(=O)c1c(O)c3c(c(O)c1C2=O)C[C@@](O)(/C(C)=N/NC(=O)c1ccc(O)cc1)C[C@@H]3OC1CC(N)C(O)C(C)O1 (some centres undefined)?
A: T/C (dose: 0.25 mg/kg/injection, schedule: Q01DX009 (ip), vehicle: water): 120 % of control; T/C (dose: 1.0 mg/kg/injection, schedule: Q01DX009 (ip), vehicle: water): 164 % of control and 223 % of control; T/C (dose: 2.0 mg/kg/injection, schedule: Q01DX009 (ip), vehicle: water): 156 % of control and 207 % of control; T/C (dose: 4.0 mg/kg/injection, schedule: Q01DX009 (ip), vehicle: water): 224 % of control and 225 % of control; T/C (dose: 8.0 mg/kg/injection, schedule: Q01DX009 (ip), vehicle: water): 245 % of control

Q: Which T/C (dose: 2.5 mg/kg/injection, schedule: Q01DX001 (ip), vehicle: saline with Tween-80) does the source give for COC(=O)N(CCCl)N=O here?
A: 109 % of control

Q: And the T/C (dose: 5.0 mg/kg/injection, schedule: Q01DX001 (ip), vehicle: saline with Tween-80)?
A: 109 % of control

Q: And the T/C (dose: 10.0 mg/kg/injection, schedule: Q01DX001 (ip), vehicle: saline with Tween-80)?
A: 123 % of control

Q: Which T/C (dose: 100.0 mg/kg/injection, schedule: Q01DX001 (ip), vehicle: saline with Tween-80) does the source give for CC(C)NC(=O)c1ccccc1S(=O)c1ccccc1 (centres undefined) here?
A: 100 % of control

Q: What about the T/C (dose: 200.0 mg/kg/injection, schedule: Q01DX001 (ip), vehicle: saline with Tween-80) of the same molecule?
A: 101 % of control

Q: And the T/C (dose: 400.0 mg/kg/injection, schedule: Q01DX001 (ip), vehicle: saline with Tween-80)?
A: 92 % of control
